The record followed here is paper PMC3256212, “Mechanism and Function of Drosophila capa GPCR: A Desiccation Stress-Responsive Receptor with Functional Homology to Human NeuromedinU Receptor” (PLoS ONE, 2012).

In this test the target is T1, NMU receptor 2 (NMUR 2) (Homo sapiens, UniProt Q9GZQ4).
T1 construct: expressed in transfected cells; host or cells: Drosophila S2 cells (pMT/V5-His TOPO)
Put plainly: [Ca2+]i (aequorin) in NMUR 2-transfected S2 cells. Type of test: cell-based. To be noted: NMUR 2- and apoaequorin-co-transfected S2 cells; N = 3 (Fig. 3D); read-out: EC50, [Ca2+]i via NMUR 2. The procedure:
The capa peptides Drm-capa-1 (GANMGLYAFPRVamide), Drm-capa-2 (ASGLVAFPRVamide), Drm-PK-1 (TGPSASSGLWFGPRLamide), Drm-PK-2 (SVPFKPRLamide) and hugin gamma (hugg, pQLQSNGEPAYRVRTPRL-amide) were synthesised as C-terminally amidated peptides (Biomatik Corporation, Canada). Peptides were dissolved in distilled ACN/H2O to a concentration of 1 mM and then diluted to the required working concentration in Schneider's medium (Invitrogen Inc.). Human neuromedin U-25 was purchased from Sigma. Rabbit polyclonal antibody to porcine neuromedinU-8 was purchased from Progen biotechnik (Heidelberg, Germany). Rabbit capa precursor peptide used was described in [21] Rabbit anti-peptide antibody was raised against the capaR epitope (CQQGTNNRETRNSQM) by Genosphere Biotechnologies (Paris, France) and purified on a HiTrap NHS-activated HP column (Amersham Pharmacia Bio-tech; Buckinghamshire, UK) according to the manufacturer's instructions. Immunohistochemistry was carried out as described previously. Mouse anti-GFP primary antibody (Zymed) and the antiserum to neuromedinU-8 were all diluted 1∶1000 or, in the case of the pre-immune serum, the affinity-purified capaR antibody and the antiserum to the capa precursor peptide, 1∶500. Incubations in the primary antibodies were performed overnight. A FITC-conjugated affinity-purified goat anti-mouse antibody (Jackson Immunologicals) was used in a dilution of 1∶1,000 for visualization of the mouse monoclonal anti-GFP. A Texas red-conjugated affinity-purified goat anti-rabbit antibody (Jackson Immunologicals) was used at a dilution of 1∶1,000 for visualization of the rabbit capaR antiserum.
Drosophila S2 cells, cultured under standard conditions were transiently transfected with the apoaequorin ORF [21] and a receptor ORF construct, and expression induced using CuSO4. Transfected S2 cells were harvested and incubated with 2.5 µM coelenterazine in the dark at RT for 1–2 h as previously described. 25,000 cells were then placed in 135 µl Schneider's medium supplemented with 10% FCS in a well of a white polystyrene 96-well plate (Berthold Technologies). Bioluminescence recordings were carried out using a Mithras LB940 automated 96-well plate reader (Berthold Technologies) and MikroWin software. 15 µl of each of different peptides were applied to final concentrations as required. At the end of each recording samples were disrupted by the addition of 100 µl lysis solution, and the [Ca^2+] concentrations calculated as previously described. For assays in Ca^2+-free medium, transfected cells were collected and pelleted after incubation with coelenterazine. Cell pellets were re-suspended in Ca^2+-free Schneider's medium (Invitrogen Inc.) without FCS and collected by centrifugation. The washing and pelleting procedure was repeated once more. […]

Peptide text beside a SMILES is read from it.

T1 sequence (Q9GZQ4 whole entry): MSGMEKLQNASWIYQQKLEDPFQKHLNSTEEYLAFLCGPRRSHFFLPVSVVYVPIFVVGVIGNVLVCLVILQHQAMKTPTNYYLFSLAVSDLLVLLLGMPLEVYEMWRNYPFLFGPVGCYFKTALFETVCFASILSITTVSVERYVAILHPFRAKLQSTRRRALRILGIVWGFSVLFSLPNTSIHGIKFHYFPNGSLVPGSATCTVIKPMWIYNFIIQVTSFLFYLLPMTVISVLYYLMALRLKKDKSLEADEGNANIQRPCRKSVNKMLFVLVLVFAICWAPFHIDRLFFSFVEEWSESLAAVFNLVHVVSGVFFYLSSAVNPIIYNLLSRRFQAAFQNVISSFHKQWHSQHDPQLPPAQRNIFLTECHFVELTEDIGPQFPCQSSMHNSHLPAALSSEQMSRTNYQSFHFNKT

The EC50 is the concentration giving half of the maximal effect. Turning to `CC(C)C[C@H](NC(=O)[C@H](Cc1ccccc1)NC(=O)[C@H](Cc1ccc(O)cc1)NC(=O)CNC(=O)[C@H](CCCNC(=N)N)NC(=O)[C@H](CO)NC(=O)[C@H](CCC(N)=O)NC(=O)[C@H](CO)NC(=O)[C@H](C)NC(=O)[C@H](Cc1ccccc1)NC(=O)[C@@H]1CCCN1C(=O)[C@H](CO)NC(=O)[C@H](CCC(N)=O)NC(=O)[C@H](Cc1ccccc1)NC(=O)[C@H](CCC(=O)O)NC(=O)[C@H](CCC(=O)O)NC(=O)[C@H](CC(=O)O)NC(=O)[C@@H](NC(=O)[C@H](CCCNC(=N)N)NC(=O)[C@@H](N)Cc1ccccc1)C(C)C)C(=O)N[C@@H](Cc1ccccc1)C(=O)N[C@@H](CCCNC(=N)N)C(=O)N1CCC[C@H]1C(=O)N[C@@H](CCCNC(=N)N)C(=O)N[C@@H](CC(N)=O)C(N)=O` [NMU-25, reference compound] (H-FRVDEEFQSPFASQSRGYFLFRPRN-NH2), the EC50 worked out at 0.91 nM.
